Assay results from patent US10273231B2, “Azoline compounds substituted by a condensed ring system” (BASF SE, priority 2014, dated 2019).

Assays:
Format in all cases: in vivo
[1] = test system: Neotropical Brown Stink Bug (Euschistus heros); experiment: B.12 Neotropical brown stink bug test on soybean pods in plastic cups; details: 120 h, adult stage, recorded after 5 days, read-out: mortality in comparison with untreated controls
Method: B.12 Neotropical Brown Stink Bug (Euschistus heros)
(§1) The active compound was dissolved at the desired concentration in a mixture of 1:1 (vol:vol) distilled water:acetone. Surfactant (Kinetic HV) was added at a rate of 0.01% (vol/vol).The test solution was prepared at the day of use.
Soybean pods were placed in microwavable plastic cups and inoculated with ten adult stage E. heros. Using a hand atomizer, approximately 1 ml solution is sprayed into each cup, insects and food present. A water source was provided (cotton wick with water). Each treatment was replicated 2-fold. Assay arenas were kept at about 25° C. Percent mortality was recorded after 5 days.

[2] = test system: Orchid Thrips (Dichromothrips Corbetti); experiment: B.7 Orchid thrips floral-immersion test; details: adult thrips, recorded 72 hours after treatment, read-out: mortality in comparison with untreated controls
Method: B.7 Orchid Thrips (Dichromothrips Corbetti) Dichromothrips corbettiadults used for bioassay were obtained from a colony maintained continuously under laboratory conditions. For testing purposes, the test compound is diluted in a 1:1 mixture of acetone:water (vol:vol), plus Kinetic HV at a rate of 0.01% v/v.
Thrips potency of each compound was evaluated by using a floral-immersion technique. All petals of individual, intact orchid flowers were dipped into treatment solution and allowed to dry in Petri dishes. Treated petals were placed into individual re-sealable plastic along with about 20 adult thrips. All test arenas were held under continuous light and a temperature of about 28° C. for duration of the assay. After 3 days, the numbers of live thrips were counted on each petal. The percent mortality was recorded 72 hours after treatment.

[3] = test system: Diamond Back Moth (Plutella xylostella); experiment: B.1 Diamond back moth leaf-dip test on cabbage leaves; details: 3rd instar larvae, recorded 72 hours after treatment, read-out: mortality in comparison with untreated controls
Method: B.1 Diamond Back Moth (Plutella xylostella)
The active compound was dissolved at the desired concentration in a mixture of 1:1 (vol:vol) distilled water:aceteone. Surfactant (Kinetic HV) was added at a rate of 0.01% (vol/vol).The test solution was prepared at the day of use.
Leaves of cabbage were dipped in test solution and air-dried. Treated leaves were placed in petri dishes lined with moist filter paper and inoculated with ten 3rd instar larvae. Mortality was recorded 72 hours after treatment. Feeding damages were also recorded using a scale of 0-100%.

[4] = test system: Rice Green Leafhopper (Nephotettix virescens); experiment: B.8 Rice green leafhopper test on sprayed rice seedlings; details: adults, recorded after 72 hours, read-out: mortality in comparison with untreated controls
Method: B.8 Rice Green Leafhopper (Nephotettix virescens)
Rice seedlings were cleaned and washed 24 hours before spraying. The active compounds were formulated in 1:1 acetone:water (vol:vol), and 0.01% vol/vol surfactant (Kinetic HV) was added. Potted rice seedlings were sprayed with 5-6 ml test solution, air dried, covered with Mylar cages cages and inoculated with 10 adults. Treated rice plants were kept at about 28-29° C. and relative humidity of about 50-60%. Percent mortality was recorded after 72 hours.

[5] = test system: Green Peach Aphid (Myzus persicae); experiment: B.2 Green peach aphid systemic test, artificial diet under membrane in microtiter plates; details: 72 h, adult aphids, assessed after 3 days, read-out: mortality in comparison with untreated controls
Source text: B.2 Green Peach Aphid (Myzus persicae)
For evaluating control of green peach aphid (Myzus persicae) through systemic means the test unit consisted of 96-well-microtiter plates containing liquid artificial diet under an artificial membrane.
The compounds were formulated using a solution containing 75% v/v water and 25% v/v DMSO. Different concentrations of formulated compounds were pipetted into the aphid diet, using a custom built pipetter, at two replications.
After application, 5-8 adult aphids were placed on the artificial membrane inside the microtiter plate wells. The aphids were then allowed to suck on the treated aphid diet and incubated at about 23±1° C. and about 50±5% relative humidity for 3 days. Aphid mortality and fecundity was then visually assessed.

[6] = test system: Brown Marmorated Stink Bug (Halyomorpha halys); experiment: B.13 Brown marmorated stink bug test on peanuts and soybean seeds in plastic cups; details: 120 h, adult stage, recorded after 5 days, read-out: mortality in comparison with untreated controls
Method: B.13 Brown Marmorated Stink Bug (Halyomorpha halys)
as §1
Row peanuts and soybean seeds were placed into microwavable plastic cups and inoculated with five adult stage H. halys. Using a hand atomizer, approximately 1 ml solution is sprayed into each cup, insects and food present. A water source was provided (cotton wick with water). Each treatment is replicated 4-fold. Assay arenas are kept at about 25° C. Percent mortality was recorded after 5 days.

[7] = test system: Southern Armyworm (Spodoptera eridania); experiment: B.10 Southern armyworm test on sprayed lima bean plants; details: 96 h, larvae, assessed 4 days after treatment, read-out: mortality in comparison with untreated controls
Method: B.10 Southern Armyworm (Spodoptera eridania)
The active compounds were formulated in cyclohexanone as a 10,000 ppm solution supplied in tubes. The tubes were inserted into an automated electrostatic sprayer equipped with an atomizing nozzle and they served as stock solutions for which lower dilutions were made in 50% acetone:50% water (v/v). A nonionic surfactant (Kinetic®) was included in the solution at a volume of 0.01% (v/v).
Lima bean plants (variety Sieva) were grown 2 plants to a pot and selected for treatment at the 1st true leaf stage. Test solutions were sprayed onto the foliage by an automated electrostatic plant sprayer equipped with an atomizing spray nozzle. The plants were dried in the sprayer fume hood and then removed from the sprayer. Each pot was placed into perforated plastic bags with a zip closure. About 10 to 11 armyworm larvae were placed into the bag and the bags zipped closed. Test plants were maintained in a growth room at about 250C and about 20-40% relative humidity for 4 days, avoiding direct exposure to fluorescent light (24 hour photoperiod) to prevent trapping of heat inside the bags. Mortality and reduced feeding were assessed 4 days after treatment, compared to untreated control plants.

[8] = test system: Red Spider Mite (Tetranychus kanzawai); experiment: B.9 Red spider mite test on sprayed cowpea beans; details: assessed 72 hours after treatment, read-out: mortality in comparison with untreated controls
Method: B.9 Red Spider Mite (Tetranychus kanzawai)
The active compound was dissolved at the desired concentration in a mixture of 1:1 (vol:vol) distilled water:acetone. Add surfactant (Kinetic HV) was added at a rate of 0.01% (vol/vol).The test solution was prepared at the day of use.
Potted cowpea beans of 4-5 days of age were cleaned with tap water and sprayed with 1-2 ml of the test solution using air driven hand atomizer. The treated plants were allowed to air dry and afterwards inoculated with 30 or more mites by clipping a cassava leaf section from rearing population. Treated plants were placed inside a holding room at about 25-27° C. and about 50-60% relative humidity. Percent mortality was assessed 72 hours after treatment.

[9] = test system: Green Soldier Stink Bug (Nezara viridula); experiment: B.11 Green soldier stink bug test on soybean pods in Petri dishes; details: 120 h, late 3rd instar, recorded after 5 days, read-out: mortality in comparison with untreated controls
Method: B.11 Green Soldier Stink Bug (Nezara viridula)
as §1
Soybean pods were placed in glass Petri dishes lined with moist filter paper and inoculated with ten late 3rd instar N. viridula. Using a hand atomizer, approximately 2 ml solution is sprayed into each Petri dish. Assay arenas were kept at about 25° C. Percent mortality was recorded after 5 days.

[10] = test system: Mediterranean Fruitfly (Ceratitis capitata); experiment: B.6 Mediterranean fruitfly test, insect diet with eggs in microtiter plates; details: 120 h, egg and larval mortality after 5 days, read-out: mortality in comparison with untreated controls
Method: B.6 Mediterranean Fruitfly (Ceratitis capitata)
For evaluating control of Mediterranean fruitfly (Ceratitis capitata) the test unit consisted of microtiter plates containing an insect diet and 50-80 C. capitata eggs. The compounds were formulated using a solution containing 75% v/v water and 25% v/v DMSO. Different concentrations of formulated compounds were sprayed onto the insect diet at 5 μl, using a custom built micro atomizer, at two replications.
After application, microtiter plates were incubated at about 28±1° C. and about 80+5% relative humidity for 5 days. Egg and larval mortality was then visually assessed.

[11] = test system: Tobacco Budworm (Heliothis virescens); experiment: B.4 Tobacco budworm test, insect diet with eggs in microtiter plates; details: 120 h, egg and larval mortality after 5 days, read-out: mortality in comparison with untreated controls
Method: B.4 Tobacco Budworm (Heliothis virescens)
For evaluating control of tobacco budworm (Heliothis virescens) the test unit consisted of 96-well-microtiter plates containing an insect diet and 15-25 H. virescens eggs.
The compounds were formulated using a solution containing 75% v/v water and 25% v/v DMSO. Different concentrations of formulated compounds were sprayed onto the insect diet at 10 μl, using a custom built micro atomizer, at two replications.
After application, microtiter plates were incubated at about 28±10C and about 80±5% relative humidity for 5 days. Egg and larval mortality was then visually assessed.

[12] = test system: Boll Weevil (Anthonomus grandis); experiment: B.5 Boll weevil test, insect diet with eggs in microtiter plates; details: 120 h, egg and larval mortality after 5 days, read-out: mortality in comparison with untreated controls
Method: B.5 Boll Weevil (Anthonomus grandis)
For evaluating control of boll weevil (Anthonomus grandis) the test unit consisted of 96-well-microtiter plates containing an insect diet and 5-10 A. grandis eggs.
The compounds were formulated using a solution containing 75% v/v water and 25% v/v DMSO. Different concentrations of formulated compounds were sprayed onto the insect diet at 5 μl, using a custom built micro atomizer, at two replications.
After application, microtiter plates were incubated at about 25±1° C. and about 75±5% relative humidity for 5 days. Egg and larval mortality was then visually assessed.

[13] = test system: Vetch Aphid (Megoura viciae); experiment: B.3 Vetch aphid test on broad bean leaf disks; details: foliar, 120 h, adult aphids, assessed after 5 days, read-out: mortality in comparison with untreated controls
Method: B.3 Vetch Aphid (Megoura viciae)
For evaluating control of vetch aphid (Megoura viciae) through contact or systemic means the test unit consisted of 24-well-microtiter plates containing broad bean leaf disks.
The compounds were formulated using a solution containing 75% v/v water and 25% v/v DMSO. Different concentrations of formulated compounds were sprayed onto the leaf disks at 2.5 μl, using a custom built micro atomizer, at two replications.
After application, the leaf disks were air-dried and 5-8 adult aphids placed on the leaf disks inside the microtiter plate wells. The aphids were then allowed to suck on the treated leaf disks and incubated at about 23±10C and about 50±5% relative humidity for 5 days. Aphid mortality and fecundity was then visually assessed.

O=C(NC1CS(=O)(=O)C1)c1ccc(C2=NOC(c3cc(Cl)c(F)c(Cl)c3)(C(F)(F)F)C2)c2c1SCC2 (centres unmarked) [Compound I-7, 4-[5-(3,5-dichloro-4-fluoro-phenyl)-5-(trifluoromethyl)-4H-isoxazol-3-yl]-N-(1,1-dioxothietan-3-yl)-2,3-dihydrobenzothiophene-7-carboxamide]
≥ 75%: mortality at 100 ppm [1] | mortality at 300 ppm [2] | mortality at 300 ppm [3] | mortality at 300 ppm [4] | mortality at 2500 ppm [5] | mortality at 100 ppm [6] | mortality at 10 ppm [7] | mortality at 300 ppm [8] | mortality at 300 ppm [9] | mortality at 2500 ppm [10] | mortality at 2500 ppm [11] | mortality at 2500 ppm [12] | mortality at 2500 ppm [13]

CCCC(=O)NCc1ccc(C2=NOC(c3cc(Cl)c(F)c(Cl)c3)(C(F)(F)F)C2)c2c1OCC2 (centres unmarked) [Compound I-16, N-[[4-[5-(3,5-dichloro-4-fluoro-phenyl)-5-(trifluoromethyl)-4H-isoxazol-3-yl]-2,3-dihydrobenzofuran-7-yl]methyl]butanamide]
≥ 75%: mortality at 300 ppm [2] | mortality at 300 ppm [3] | mortality at 300 ppm [4] | mortality at 2500 ppm [5] | mortality at 300 ppm [8] | mortality at 300 ppm [9] | mortality at 2500 ppm [10] | mortality at 2500 ppm [11] | mortality at 2500 ppm [12] | mortality at 2500 ppm [13]
